Target: human activated kallikrein enzyme (Homo sapiens (Human), UniProt P03952)
Experiment: Plasma kallikrein inhibition assay with fluorogenic peptide substrate, 500 pM activated kallikrein format
Type: biochemical
Conditions: 500 pM activated kallikrein; 300 uM Pro-Phe-Arg-7-amido-4-methylcoumarin substrate; 30 min preincubation, 10 min reaction at RT; read-out: Primary Dose Response Assay: Average EC50
How it was run: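 Human activated kallikrein (500 pM format) was preincubated 30 min at RT with inhibitor in 20 mM Tris pH 7.5, 150 mM NaCl, 1 mM EDTA, 0.1% PEG-400, 0.1% Triton X-100. Reactions then ran 10 min at RT with 300 uM Pro-Phe-Arg-AMC. Fluorescence was read at ex 380/em 460 nm.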

human activated kallikrein enzyme, sequence (P03952 391-638): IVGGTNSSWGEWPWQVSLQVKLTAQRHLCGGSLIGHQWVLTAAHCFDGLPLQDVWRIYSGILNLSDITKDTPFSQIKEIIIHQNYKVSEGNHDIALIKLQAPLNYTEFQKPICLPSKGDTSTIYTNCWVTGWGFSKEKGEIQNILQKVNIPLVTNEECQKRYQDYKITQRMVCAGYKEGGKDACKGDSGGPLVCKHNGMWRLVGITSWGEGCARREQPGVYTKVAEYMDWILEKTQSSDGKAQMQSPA
human activated kallikrein enzyme, sequence (P03952 20-390 partner): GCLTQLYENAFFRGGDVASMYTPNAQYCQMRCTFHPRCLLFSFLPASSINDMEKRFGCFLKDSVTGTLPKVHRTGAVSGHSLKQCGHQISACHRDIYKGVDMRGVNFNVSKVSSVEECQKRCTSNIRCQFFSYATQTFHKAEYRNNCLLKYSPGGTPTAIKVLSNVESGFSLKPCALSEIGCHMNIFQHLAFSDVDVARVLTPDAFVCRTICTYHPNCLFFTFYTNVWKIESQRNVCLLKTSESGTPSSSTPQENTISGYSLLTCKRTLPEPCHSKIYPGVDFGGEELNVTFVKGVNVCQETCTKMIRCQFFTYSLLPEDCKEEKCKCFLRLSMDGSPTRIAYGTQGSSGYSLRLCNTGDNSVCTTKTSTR

Row | SMILES | EC50 [nM]
1 | Cc1c(Cl)ccc(-n2cnnn2)c1CNC(=O)c1cn(Cc2cn3cc(C4CC4)ccc3n2)nn1 [Example I-80, N-(3-chloro-2-methyl-6-(1H-tetrazol-1-yl)benzyl)-1-((6-cyclopropylimidazo[1,2-a]pyridin-2-yl)methyl)-1H-1,2,3-triazole-4-carboxamide] | 100 to 2000
2 | O=C(NCc1ccc2sccc2c1)c1cn(Cc2cn3cc(C4CC4)ccc3n2)nn1 [Example I-84, N-(benzo[b]thiophen-5-ylmethyl)-1-((6-cyclopropylimidazo[1,2-a]pyridin-2-yl)methyl)-1H-1,2,3-triazole-4-carboxamide] | 100 to 2000
3 | N#CNc1ccc(Cl)c(F)c1CNC(=O)c1cn(Cc2cn3cc(C4CC4)cc(CCC(=O)O)c3n2)nn1 [Example I-110, 3-(2-((4-((3-chloro-6-cyanamido-2-fluorobenzyl)carbamoyl)-1H-1,2,3-triazol-1-yl)methyl)-6-cyclopropylimidazo[1,2-a]pyridin-8-yl)propanoic Acid] | 1 to 10
4 | O=C(NCc1cc(Cl)ccc1-n1cnnn1)c1cnn(Cc2cn3cc(C4CC4)ccc3n2)c1 [Example I-125, N-(5-chloro-2-(1H-tetrazol-1-yl)benzyl)-1-((6-cyclopropylimidazo[1,2-a]pyridin-2-yl)methyl)-1H-pyrazole-4-carboxamide] | 1 to 10
5 | O=C(NC1CCc2c(Cl)ccn3cnc1c23)c1cn(Cc2cn3cc(C4CC4)ccc3n2)nn1 (stereo not shown) [Example I-135, N-(6-chloro-8,9-dihydro-7H-imidazo[4,5,1-ij]quinolin-9-yl)-1-((6-cyclopropylimidazo[1,2-a]pyridin-2-yl)methyl)-1H-1,2,3-triazole-4-carboxamide] | 10 to 100

Results, then the compound that gave them:

Row | EC50 [nM] | SMILES
6 | 100 to 2000 | COc1ccc(S(C)(=O)=O)c(CNC(=O)c2cn(Cc3cn4cc(C5CC5)ccc4n3)nn2)c1F [Example I-53, 1-((6-cyclopropylimidazo[1,2-a]pyridin-2-yl)methyl)-N-(2-fluoro-3-methoxy-6-(methylsulfonyl)benzyl)-1H-1,2,3-triazole-4-carboxamide]
7 | 100 to 2000 | COc1ncc(C#N)c(CNC(=O)c2cn(Cc3cn4cc(C5CC5)ccc4n3)nn2)c1F [Example I-72, N-((5-cyano-3-fluoro-2-methoxypyridin-4-yl)methyl)-1-((6-cyclopropylimidazo[1,2-a]pyridin-2-yl)methyl)-1H-1,2,3-triazole-4-carboxamide]
8 | 10 to 100 | O=C(NCc1cc2c(cn1)CCO2)c1cn(Cc2cn3cc(C4CC4)ccc3n2)nn1 [Example I-141, 1-((6-cyclopropylimidazo[1,2-a]pyridin-2-yl)methyl)-N-((2,3-dihydrofuro[3,2-c]pyridin-6-yl)methyl)-1H-1,2,3-triazole-4-carboxamide]
9 | 10 to 100 | CCc1ccc(-n2cnnn2)c(CNC(=O)c2cn(Cc3cn4cc(C5CC5)ccc4n3)nn2)c1F [Example I-83, 1-((6-cyclopropylimidazo[1,2-a]pyridin-2-yl)methyl)-N-(3-ethyl-2-fluoro-6-(1H-tetrazol-1-yl)benzyl)-1H-1,2,3-triazole-4-carboxamide]
10 | ≤ 1 | COc1ccc(-n2cnc(C(F)(F)F)n2)c(CNC(=O)c2cn(Cc3cn4cc(C5CC5)ccc4n3)nn2)c1F [Example I-52, 1-((6-cyclopropylimidazo[1,2-a]pyridin-2-yl)methyl)-N-(2-fluoro-3-methoxy-6-(3-(trifluoromethyl)-1H-1,2,4-triazol-1-yl)benzyl)-1H-1,2,3-triazole-4-carboxamide]

Source: patent US11787796B2, “Plasma Kallikrein inhibitors and uses thereof” (Takeda Pharmaceutical Company Limited, priority 2019, dated 2023)
